Test results: patent US11053204B2, “Pyrimidinyloxy benzene derivatives as herbicides” (FMC Corporation, priority 2015, dated 2021)

Legend:
Test in all cases: Test C postemergence, plant response rating
Assay type in all cases: in vivo
[1] = test system: Canada thistle (Cirsium arvense); settings: for Canada Thistle plant response rating: scale 0 to 100 (0 no effect, 100 complete control)
Summary of the method: (§1)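 Pre-emergence: seeds sown in loam soil–sand blend or silt loam and sprayed with test chemicals in a non-phytotoxic solvent mixture with surfactant. Post-emergence: plants 2 to 18 cm (1- to 4-leaf stage) in peat-based potting medium, same formulation. Greenhouse 13 to 15 d; visual rating 0 (no effect) to 100 (complete control) versus controls.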

[2] = test system: buckwheat, wild (wild buckwheat, Polygonum convolvulus); settings: for Buckwheat, Wild plant response rating: scale 0 to 100 (0 no effect, 100 complete control)
Summary of the method: as §1

[3] = test system: field poppy (Papaver rhoeas); settings: for Field Poppy plant response rating: scale 0 to 100 (0 no effect, 100 complete control)
Summary of the method: as §1

[4] = test system: field violet (Viola arvensis); settings: for Field Violet plant response rating: scale 0 to 100 (0 no effect, 100 complete control)
Summary of the method: as §1

[5] = test system: geranium, cutleaf (cutleaf geranium, Geranium dissectum); settings: for Geranium, Cutleaf plant response rating: scale 0 to 100 (0 no effect, 100 complete control)
Summary of the method: as §1

[6] = test system: johnsongrass (Sorghum halepense); settings: for Johnsongrass plant response rating: scale 0 to 100 (0 no effect, 100 complete control)
Summary of the method: as §1

[7] = test system: nightshade (eastern black nightshade, Solanum ptycanthum); settings: for Nightshade plant response rating: scale 0 to 100 (0 no effect, 100 complete control)
Summary of the method: as §1

[8] = test system: pigweed, palmer (palmer pigweed, Amaranthus palmeri); settings: for Pigweed, Palmer plant response rating: scale 0 to 100 (0 no effect, 100 complete control)
Summary of the method: as §1

[9] = test system: speedwell (bird's-eye speedwell, Veronica persica); settings: for Speedwell plant response rating: scale 0 to 100 (0 no effect, 100 complete control)
Summary of the method: as §1

[10] = test system: surinam grass (Brachiaria decumbens); settings: for Surinam Grass plant response rating: 125 g ai/ha, scale 0 to 100 (0 no effect, 100 complete control)
Summary of the method: as §1

[11] = test system: wild mustard (Sinapis arvensis); settings: for Mustard, Wild plant response rating: scale 0 to 100 (0 no effect, 100 complete control)
Summary of the method: as §1

[12] = test system: wild poinsettia (Euphorbia heterophylla); settings: for Poinsettia, Wild plant response rating: scale 0 to 100 (0 no effect, 100 complete control)
Summary of the method: as §1

[13] = test system: windgrass (Apera spica-venti); settings: for Windgrass plant response rating: 125 g ai/ha, scale 0 to 100 (0 no effect, 100 complete control)
Summary of the method: as §1

## FC(F)(F)CCCCc1c(Cl)cccc1Oc1ncc(Cl)cn1 [Compound 137]
[1]; 16 g ai/ha, scale of 0 to 100
  Plant response rating, Canada Thistle: 75
[1]; 31 g ai/ha, scale 0 to 100
  Plant response rating, Canada Thistle: 85
[1]; 62 g ai/ha
  Canada Thistle plant response rating: 98
[1]; 125 g ai/ha
  Canada Thistle plant response rating: 100
[2]; 16 g ai/ha, scale of 0 to 100
  Plant response rating, Buckwheat, Wild: 70
[2]; 31 g ai/ha, scale 0 to 100
  Plant response rating, Buckwheat, Wild: 75
[2]; 62 g ai/ha
  Buckwheat, Wild plant response rating: 98
[2]; 125 g ai/ha
  Buckwheat, Wild plant response rating: 90
[3]; 16 g ai/ha, scale of 0 to 100
  Plant response rating, Field Poppy: 85
[3]; 31 g ai/ha, scale 0 to 100
  Plant response rating, Field Poppy: 95
[3]; 62 g ai/ha
  Field Poppy plant response rating: 100
[3]; 125 g ai/ha
  Field Poppy plant response rating: 100
[4]; 16 g ai/ha, scale of 0 to 100
  Plant response rating, Field Violet: 65
[4]; 31 g ai/ha, scale 0 to 100
  Plant response rating, Field Violet: 70
[4]; 62 g ai/ha
  Field Violet plant response rating: 85
[4]; 125 g ai/ha
  Field Violet plant response rating: 85
[5]; 16 g ai/ha, scale of 0 to 100
  Plant response rating, Geranium, Cutleaf: 10
[5]; 31 g ai/ha, scale 0 to 100
  Plant response rating, Geranium, Cutleaf: 25
[5]; 62 g ai/ha
  Geranium, Cutleaf plant response rating: 30
[5]; 125 g ai/ha
  Geranium, Cutleaf plant response rating: 35
[6]; 16 g ai/ha, scale of 0 to 100
  Plant response rating, Johnsongrass: 5
[6]; 31 g ai/ha, scale 0 to 100
  Plant response rating, Johnsongrass: 10
[6]; 62 g ai/ha
  Johnsongrass plant response rating: 10
[6]; 125 g ai/ha
  Johnsongrass plant response rating: 25
[7]; 16 g ai/ha, scale of 0 to 100
  Plant response rating, Nightshade: 60
[7]; 31 g ai/ha, scale 0 to 100
  Plant response rating, Nightshade: 80
[7]; 62 g ai/ha
  Nightshade plant response rating: 90
[7]; 125 g ai/ha
  Nightshade plant response rating: 90
[8]; 16 g ai/ha, scale of 0 to 100
  Plant response rating, Pigweed, Palmer: 20
[8]; 31 g ai/ha, scale 0 to 100
  Plant response rating, Pigweed, Palmer: 45
[8]; 62 g ai/ha
  Pigweed, Palmer plant response rating: 50
[8]; 125 g ai/ha
  Pigweed, Palmer plant response rating: 70
[9]; 16 g ai/ha, scale of 0 to 100
  Plant response rating, Speedwell: 75
[9]; 31 g ai/ha, scale 0 to 100
  Plant response rating, Speedwell: 80
[9]; 62 g ai/ha
  Speedwell plant response rating: 100
[9]; 125 g ai/ha
  Speedwell plant response rating: 100
[10]; 16 g ai/ha, scale of 0 to 100
  Plant response rating, Surinam Grass: 5
[10]; 31 g ai/ha, scale 0 to 100
  Plant response rating, Surinam Grass: 10
[10]
  Surinam Grass plant response rating: 20
[11]; 16 g ai/ha, scale of 0 to 100
  Plant response rating, Mustard, Wild: 100
[11]; 31 g ai/ha, scale 0 to 100
  Plant response rating, Mustard, Wild: 85
[11]; 62 g ai/ha
  Mustard, Wild plant response rating: 100
[11]; 125 g ai/ha
  Mustard, Wild plant response rating: 100
[12]; 16 g ai/ha, scale of 0 to 100
  Plant response rating, Poinsettia, Wild: 15
[12]; 31 g ai/ha, scale 0 to 100
  Plant response rating, Poinsettia, Wild: 65
[12]; 62 g ai/ha
  Poinsettia, Wild plant response rating: 65
[12]; 125 g ai/ha
  Poinsettia, Wild plant response rating: 75
[13]; 16 g ai/ha, scale of 0 to 100
  Plant response rating, Windgrass: 10
[13]; 31 g ai/ha, scale 0 to 100
  Plant response rating, Windgrass: 10
[13]
  Windgrass plant response rating: 45

## O=C(CCCC(F)(F)F)c1c(Cl)cccc1Oc1ncc(Cl)cn1 [Compound 143]
[1]; 16 g ai/ha, scale of 0 to 100
  Plant response rating, Canada Thistle: 85
[1]; 31 g ai/ha, scale 0 to 100
  Plant response rating, Canada Thistle: 85
[1]; 62 g ai/ha
  Canada Thistle plant response rating: 90
[1]; 125 g ai/ha
  Canada Thistle plant response rating: 100
[2]; 16 g ai/ha, scale of 0 to 100
  Plant response rating, Buckwheat, Wild: 75
[2]; 31 g ai/ha, scale 0 to 100
  Plant response rating, Buckwheat, Wild: 85
[2]; 62 g ai/ha
  Buckwheat, Wild plant response rating: 100
[2]; 125 g ai/ha
  Buckwheat, Wild plant response rating: 100
[3]; 16 g ai/ha, scale of 0 to 100
  Plant response rating, Field Poppy: 80
[3]; 31 g ai/ha, scale 0 to 100
  Plant response rating, Field Poppy: 90
[3]; 62 g ai/ha
  Field Poppy plant response rating: 90
[3]; 125 g ai/ha
  Field Poppy plant response rating: 100
[4]; 16 g ai/ha, scale of 0 to 100
  Plant response rating, Field Violet: 75
[4]; 31 g ai/ha, scale 0 to 100
  Plant response rating, Field Violet: 80
[4]; 62 g ai/ha
  Field Violet plant response rating: 98
[4]; 125 g ai/ha
  Field Violet plant response rating: 100
[5]; 16 g ai/ha, scale of 0 to 100
  Plant response rating, Geranium, Cutleaf: 30
[5]; 31 g ai/ha, scale 0 to 100
  Plant response rating, Geranium, Cutleaf: 50
[5]; 62 g ai/ha
  Geranium, Cutleaf plant response rating: 60
[5]; 125 g ai/ha
  Geranium, Cutleaf plant response rating: 75
[6]; 16 g ai/ha, scale of 0 to 100
  Plant response rating, Johnsongrass: 5
[6]; 31 g ai/ha, scale 0 to 100
  Plant response rating, Johnsongrass: 5
[6]; 62 g ai/ha
  Johnsongrass plant response rating: 10
[6]; 125 g ai/ha
  Johnsongrass plant response rating: 20
[7]; 16 g ai/ha, scale of 0 to 100
  Plant response rating, Nightshade: 65
[7]; 31 g ai/ha, scale 0 to 100
  Plant response rating, Nightshade: 85
[7]; 62 g ai/ha
  Nightshade plant response rating: 90
[7]; 125 g ai/ha
  Nightshade plant response rating: 90
[8]; 16 g ai/ha, scale of 0 to 100
  Plant response rating, Pigweed, Palmer: 45
[8]; 31 g ai/ha, scale 0 to 100
  Plant response rating, Pigweed, Palmer: 75
[8]; 62 g ai/ha
  Pigweed, Palmer plant response rating: 80
[8]; 125 g ai/ha
  Pigweed, Palmer plant response rating: 100
[9]; 16 g ai/ha, scale of 0 to 100
  Plant response rating, Speedwell: 80
[9]; 31 g ai/ha, scale 0 to 100
  Plant response rating, Speedwell: 80
[9]; 62 g ai/ha
  Speedwell plant response rating: 85
[9]; 125 g ai/ha
  Speedwell plant response rating: 100
[10]; 16 g ai/ha, scale of 0 to 100
  Plant response rating, Surinam Grass: 5
[10]; 31 g ai/ha, scale 0 to 100
  Plant response rating, Surinam Grass: 10
[10]
  Surinam Grass plant response rating: 20
[11]; 16 g ai/ha, scale of 0 to 100
  Plant response rating, Mustard, Wild: 100
[11]; 31 g ai/ha, scale 0 to 100
  Plant response rating, Mustard, Wild: 100
[11]; 62 g ai/ha
  Mustard, Wild plant response rating: 100
[11]; 125 g ai/ha
  Mustard, Wild plant response rating: 100
[12]; 16 g ai/ha, scale of 0 to 100
  Plant response rating, Poinsettia, Wild: 55
[12]; 31 g ai/ha, scale 0 to 100
  Plant response rating, Poinsettia, Wild: 65
[12]; 62 g ai/ha
  Poinsettia, Wild plant response rating: 70
[12]; 125 g ai/ha
  Poinsettia, Wild plant response rating: 75
[13]; 16 g ai/ha, scale of 0 to 100
  Plant response rating, Windgrass: 30
[13]; 31 g ai/ha, scale 0 to 100
  Plant response rating, Windgrass: 35
[13]
  Windgrass plant response rating: 40
